We go through two compounds from US9572786B2, “Use of capsiate or dihydrocapsidate” (Catholic University Industry Academy Cooperation Foundation, priority 2007, dated 2017).

The test system of series [1] is C57/BL6 mouse. The series is described as follows: Mouse Matrigel plug assay. The following applies: 60 μg in 0.6 mL Matrigel with 100 ng VEGF, subcutaneous injection, 6 days. The format is in vivo. How it is done: Mouse Matrigel plug was carried out in order to investigate the effect of capsiate or dihydrocapsiate on VEGF-induced angiogenesis in vivo [Min K J et al., 2007, Blood, 15: 1495-1502].
0.6 mL of Matrigel containing 60 μg of capsiate or dihydrocapsiate, 100 ng of VEGF and 10 units of heparin or Matrigel containing 100 ng of VEGF only was administered to C57/BL6 mouse (Orient, Korea) through subcutaneous injection. 6 days later, the produced Matrigel plug was taken out.

In series [2] the test system is HaCaT cells. Put plainly: UV-induced intracellular ROS production (DCFH-DA fluorescence microscopy). The format is cell-based, human. As to conditions: 50 μM, UV 100 J/m^2, vs UV only control group. The protocol: 5×10^5 HaCaT cells (acquired from Professor N. Fusenig of the German Cancer Research Center), which are a human keratinocyte cell line, were placed on a 60 mm Petri dish (1×10^6 cells for a 100 mm Petri dish) and cultured for 24 hours in Dulbecco's modified Eagle's medium (DMEM) containing 10% fetal bovine serum (FBS).
After treating with 50 μM capsiate for 30 minutes, the cells were washed 3 times with phosphate buffered saline (PBS). In order to induce the production of ROS, UV was irradiated at an intensity of 100 J/m^2, using a UV lamp (FSX 24 T12/UVB/HO, Pansol™ USA). Immediately after the UV irradiation, the cells were washed again with PBS and further cultured for 2 hours in DMEM containing 1% FBS, which was treated with capsiate at the same concentration as in the pre-treatment. After treating with 25 μM 2,7-dichlorofliuorescin diacetate (DCFH-DA) in Hank's balanced salt solution (HBSS, BioWhittaker Cambrex, USA) for 30 minutes, the cells were washed 3 times with PBS.
The treated cells were observed under a fluorescence microscope (Carl Zeiss, USA) in order to measure the ROS produced by the UV irradiation. […]
Inhibition effect on the production of intracellular ROS induced by UV was measured in the same manner as Example 1-1, except for using dihydrocapsiate instead of capsiate.

The subject of series [3] is HUVEC. Put plainly: VEGF-induced proliferation of endothelial cells, 3H-thymidine incorporation assay. The following applies: 25 μM; 10 ng/mL VEGF. The format is cell-based, human. The protocol:
The inhibition effect of capsiate or dihydrocapsiate on the proliferation of EC induced by VEGF was investigated by ^3H-thymidine incorporation assay according to a method published in the literature [Lee O H et al., 1999, Biochem. Biophys. Res. Commun., 264: 743-750].
In brief, HUVEC were placed on a gelatin-coated 24-well plate at a concentration of 2×10^4 cells/well. After culturing for 24 hours, followed by washing twice with M199 medium (Invitrogen, USA), the cells were cultured for 6 hours in M199 medium containing 1% FBS. After addition of 25 μM capsiate or dihydrocapsiate, followed by pre-culturing for 30 minutes, 10 ng/mL VEGF was added and the cells were cultured for 30 hours. Then, 0.5 μCi/mL ^3H-thymidine was added and the cells were cultured for 6 hours.
DNA was precipitated from the cultured cells in 10% trichloroacetic acid at 4° C. for 30 minutes and washed twice with water. The DNA was dissolved in 0.2 N NaOH/0.1% SDS and measured using a liquid scintillation counter.

Series [4] has as its system cyclin A. The series is described as follows: Cyclin expression, Western blotting: cyclin A. The format is cell-based, human. As to conditions: HUVEC; 1, 5, 10, 25 μM; 10 ng/mL VEGF; 12 hours. How it is done:
(§1) 3×10^5 HUVEC were placed on a 60 mm plate and cultured for 24 hours. After washing twice with M199 medium (Invitrogen, USA), the cells were cultured in M199 medium containing 1% FBS for 6 hours. After adding capsiate or dihydrocapsiate at different concentrations (1 μM, 5 μM, 10 μM, 25 μM), followed by pre-culturing for 30 minutes, 10 ng/mL VEGF was added and the cells were cultured for 12 hours. The cells were collected and proteins obtained therefrom were quantitated and the expression level of the proteins was identified by Western blotting using antibodies of cyclin D1, cyclin E and cyclin A.

The subject of series [5] is Human umbilical vein endothelial cells (HUVEC). Put plainly: VEGF-induced proliferation of endothelial cells, MTT assay. The format is cell-based. The following applies: for proliferation of HUVEC induced by VEGF (MTT): 1, 5, 10, 25 μM, 10 ng/mL VEGF, 48 hours; for growth of HUVEC without VEGF (cell toxicity): concentration up to 50 μM without VEGF, not shown in figure. The protocol:
MTT assay was carried out investigate the effect of capsiate or dihydrocapsiate on the proliferation of endothelial cells (EC) induced by VEGF.
Human umbilical vein endothelial cells (HUVEC) were placed on a gelatin-coated 24-well plate at a concentration of 2×10^4 cells/well. After culturing for 24 hours, followed by washing twice with M199 medium (Invitrogen, USA), the cells were cultured for 6 hours in M199 medium containing 1% FBS. After addition of capsiate or dihydrocapsiate at different concentrations (1 μM, 5 μM, 10 μM, 25 μM), followed by pre-culturing for 30 minutes, 10 ng/mL VEGF (Upstate, USA) was added and the cells were cultured for 48 hours. Then, 3-(4,5-dimethylthiazol-2-yl)-2,5-diphenyltetrazolium bromide salt (MTT) solution (0.5 mg/mL) was added and the cells were cultured at 37° C. for 3 hours. Remaining MTT was cautiously removed and the formed crystal was dissolved in DMSO for 30 minutes and subjected to absorbance measurement at 560 nm after mixing well for 5 minutes.

Series [6] deals with HUVEC. The series is described as follows: Chemotactic mobility, Transwell assay. The format is cell-based, human. As to conditions: 1, 5, 10, 25 μM; 4 hours. The protocol: Transwell assay (Corning Costar, USA) was carried out in order to investigate the effect of capsiate or dihydrocapsiate on chemotactic mobility of HUVEC [Lee O H et al., 1999, Biochem. Biophys. Res. Commun. 264; 743-750].
In brief, the bottom side of a filter was coated with 10 μg of gelatin and M199 medium containing VEGF and 1% FBS was added to the lower well. HUVEC were prepared by treating with trypsin and diluting in M199 medium containing 1% FBS to a concentration of 1×10^6 cells/mL. Capsiate or dihydrocapsiate at different concentrations (1 μM, 5 μM, 10 μM, 25 μM) were pre-treated at room temperature for 30 minutes. The cells in […] of medium were added to the upper well and cultured at 37° C. for 4 hours. After fixation, followed by staining with hematoxylin and eosin, the cells remaining on the top surface of the filter without moving were removed. The cells that migrated to the bottom side of the filter were observed and counted using an optical microscope (×200).

Series [7] deals with cyclin E. The series is described as follows: Cyclin expression, Western blotting: cyclin E. The format is cell-based, human. The following applies: HUVEC; 1, 5, 10, 25 μM; 10 ng/mL VEGF; 12 hours. The protocol:
as §1

As for `COc1cc(COC(=O)CCCC/C=C/C(C)C)ccc1O` [capsiate], the “VEGF-induced angiogenesis in Matrigel plug (colour)” value in series [1] is on record as “angiogenesis hardly occurred”. Also, the “production of intracellular ROS induced by UV” value in series [2] is recorded as “decreased remarkably”. Also, in series [3], the “VEGF-increased DNA synthesis in HUVEC (3H-thymidine incorporation)” value is “inhibited the DNA synthesis”. Also, in series [4], the “VEGF-increased cyclin A expression in protein level” value was “concentration-dependent decrease”. In addition, in series [5], the “proliferation of HUVEC induced by VEGF (MTT)” value is on record as “inhibited by capsiate or dihydrocapsiate in a concentration-dependent manner” and the “growth of HUVEC without VEGF (cell toxicity)” value is “grew normally”. Besides, the “VEGF-increased chemotactic mobility of HUVEC” value in series [6] is “decreased in a concentration-dependent manner”. For the same compound, in series [7], the “VEGF-increased cyclin E expression in protein level” value is on record as “concentration-dependent decrease”.
On to `COc1cc(COC(=O)CCCCCCC(C)C)ccc1O` [dihydrocapsiate], for which the “VEGF-induced angiogenesis in Matrigel plug (colour)” value in series [1] was “angiogenesis hardly occurred”. Further, the “production of intracellular ROS induced by UV” value in series [2] is listed as “decreased remarkably”. Also, the “VEGF-increased DNA synthesis in HUVEC (3H-thymidine incorporation)” value in series [3] was “inhibited the DNA synthesis”. Also, in series [4], the “VEGF-increased cyclin A expression in protein level” value was “concentration-dependent decrease”. Moreover, in series [5], the “proliferation of HUVEC induced by VEGF (MTT)” value is given as “inhibited by capsiate or dihydrocapsiate in a concentration-dependent manner” and the “growth of HUVEC without VEGF (cell toxicity)” value is “grew normally”. In series [6], the “VEGF-increased chemotactic mobility of HUVEC” value is given as “decreased in a concentration-dependent manner”. Further, the “VEGF-increased cyclin E expression in protein level” value in series [7] was “concentration-dependent decrease”.
